# Results published in PubChem BioAssay (NCI).
#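 Five compound concentrations were applied to cells in 96-well plates for 48 hours; endpoints were derived by simple linear interpolation of the resulting dose-response curve. Definition used: TGI = concentration required for complete inhibition of growth.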
# Columns and labels:
# Test in all cases: NCI tumour cell line growth inhibition, 48 h
# HL-60(TB) leukemia = system: HL-60(TB) leukemia
# UACC-257 melanoma = system: UACC-257 melanoma
# SK-MEL-28 melanoma = system: SK-MEL-28 melanoma
# A498 renal = system: A498 renal
# MDA-MB-231 breast = system: MDA-MB-231 breast
# SW-620 colon = system: SW-620 colon
# UO-31 renal = system: UO-31 renal
# HCT-15 colon = system: HCT-15 colon
# UACC-62 melanoma = system: UACC-62 melanoma
# SNB-19 CNS = system: SNB-19 CNS
# DU-145 prostate = system: DU-145 prostate
# SF-295 CNS = system: SF-295 CNS
# SF-268 CNS = system: SF-268 CNS
# EKVX NSCLC = system: EKVX NSCLC
# OVCAR-8 ovarian = system: OVCAR-8 ovarian
# MDA-N = system: MDA-N
# SF-539 CNS = system: SF-539 CNS
# HCC-2998 colon = system: HCC-2998 colon
# SN12C renal = system: SN12C renal
# RPMI-8226 leukemia = system: RPMI-8226 leukemia
# KM12 colon = system: KM12 colon
# HT29 colon = system: HT29 colon
# M14 melanoma = system: M14 melanoma
# OVCAR-5 ovarian = system: OVCAR-5 ovarian
# T-47D breast = system: T-47D breast
# U251 CNS = system: U251 CNS
# BT-549 breast = system: BT-549 breast
# SR leukemia = system: SR leukemia
# TK-10 renal = system: TK-10 renal
# IGROV1 ovarian = system: IGROV1 ovarian
# CCRF-CEM leukemia = system: CCRF-CEM leukemia
# K-562 leukemia = system: K-562 leukemia
# HOP-92 NSCLC = system: HOP-92 NSCLC
# COLO 205 colon = system: COLO 205 colon
# NCI-H226 lung = system: NCI-H226 lung
# NCI-H460 lung = system: NCI-H460 lung
# 786-0 renal = system: 786-0 renal
# A549 NSCLC = system: A549 NSCLC
# MOLT-4 leukemia = system: MOLT-4 leukemia
# ACHN renal = system: ACHN renal
# MALME-3M melanoma = system: MALME-3M melanoma
# NCI/ADR-RES ovarian = system: NCI/ADR-RES ovarian
# HCT-116 colon = system: HCT-116 colon
# RXF 393 renal = system: RXF 393 renal
# SK-MEL-5 melanoma = system: SK-MEL-5 melanoma
# NCI-H23 lung = system: NCI-H23 lung
# MDA-MB-435 = system: MDA-MB-435
# CAKI-1 renal = system: CAKI-1 renal
# SNB-75 CNS = system: SNB-75 CNS
# NCI-H522 lung = system: NCI-H522 lung
# MCF7 breast = system: MCF7 breast
# OVCAR-4 ovarian = system: OVCAR-4 ovarian
# HS 578T breast = system: HS 578T breast
# SK-OV-3 ovarian = system: SK-OV-3 ovarian
# OVCAR-3 ovarian = system: OVCAR-3 ovarian
# PC-3 prostate = system: PC-3 prostate
# HOP-62 NSCLC = system: HOP-62 NSCLC
# SK-MEL-2 melanoma = system: SK-MEL-2 melanoma
# LOX IMVI melanoma = system: LOX IMVI melanoma
structure (smiles),measurement,setting,value
Cn1c(NS(=O)(=O)c2ccccc2)nc2ccccc21,TGI,HL-60(TB) leukemia,> 100 µM
same,TGI,UACC-257 melanoma,> 100 µM
same,TGI,SK-MEL-28 melanoma,> 100 µM
same,TGI,A498 renal,> 100 µM
same,TGI,MDA-MB-231 breast,> 100 µM
same,TGI,SW-620 colon,> 100 µM
same,TGI,UO-31 renal,> 100 µM
same,TGI,HCT-15 colon,> 100 µM
same,TGI,UACC-62 melanoma,> 100 µM
same,TGI,SNB-19 CNS,> 100 µM
same,TGI,DU-145 prostate,> 100 µM
same,TGI,SF-295 CNS,> 100 µM
same,TGI,SF-268 CNS,> 100 µM
same,TGI,EKVX NSCLC,> 100 µM
same,TGI,OVCAR-8 ovarian,> 100 µM
same,TGI,MDA-N,> 100 µM
same,TGI,SF-539 CNS,> 100 µM
same,TGI,HCC-2998 colon,> 100 µM
same,TGI,SN12C renal,> 100 µM
same,TGI,RPMI-8226 leukemia,> 100 µM
same,TGI,KM12 colon,> 100 µM
same,TGI,HT29 colon,> 100 µM
same,TGI,M14 melanoma,> 100 µM
same,TGI,OVCAR-5 ovarian,> 100 µM
same,TGI,T-47D breast,> 100 µM
same,TGI,U251 CNS,> 100 µM
same,TGI,BT-549 breast,> 100 µM
same,TGI,SR leukemia,> 100 µM
same,TGI,TK-10 renal,> 100 µM
same,TGI,IGROV1 ovarian,> 100 µM
same,TGI,CCRF-CEM leukemia,> 100 µM
same,TGI,K-562 leukemia,> 100 µM
same,TGI,HOP-92 NSCLC,> 100 µM
same,TGI,COLO 205 colon,> 100 µM
same,TGI,NCI-H226 lung,> 100 µM
same,TGI,NCI-H460 lung,> 100 µM
same,TGI,786-0 renal,> 100 µM
same,TGI,A549 NSCLC,> 100 µM
same,TGI,MOLT-4 leukemia,> 100 µM
same,TGI,ACHN renal,> 100 µM
same,TGI,MALME-3M melanoma,> 100 µM
same,TGI,NCI/ADR-RES ovarian,> 100 µM
same,TGI,HCT-116 colon,> 100 µM
same,TGI,RXF 393 renal,> 100 µM
same,TGI,SK-MEL-5 melanoma,> 100 µM
same,TGI,NCI-H23 lung,> 100 µM
same,TGI,MDA-MB-435,> 100 µM
same,TGI,CAKI-1 renal,> 100 µM
same,TGI,SNB-75 CNS,> 100 µM
same,TGI,NCI-H522 lung,> 100 µM
same,TGI,MCF7 breast,> 100 µM
same,TGI,OVCAR-4 ovarian,> 100 µM
same,TGI,HS 578T breast,> 100 µM
same,TGI,SK-OV-3 ovarian,> 100 µM
CCOP(=O)(OCC)c1ccc(=O)[nH]c1-c1cccs1,TGI,UACC-257 melanoma,> 100 µM
same,TGI,SK-MEL-28 melanoma,> 100 µM
same,TGI,A498 renal,> 100 µM
same,TGI,SW-620 colon,> 100 µM
same,TGI,UO-31 renal,> 100 µM
same,TGI,HCT-15 colon,> 100 µM
same,TGI,UACC-62 melanoma,> 100 µM
same,TGI,SNB-19 CNS,> 100 µM
same,TGI,DU-145 prostate,> 100 µM
same,TGI,SF-295 CNS,> 100 µM
same,TGI,SF-268 CNS,> 100 µM
same,TGI,EKVX NSCLC,> 100 µM
same,TGI,OVCAR-8 ovarian,> 100 µM
same,TGI,MDA-N,> 100 µM
same,TGI,SF-539 CNS,> 100 µM
same,TGI,HCC-2998 colon,> 100 µM
same,TGI,SN12C renal,> 100 µM
same,TGI,RPMI-8226 leukemia,> 100 µM
same,TGI,OVCAR-3 ovarian,> 100 µM
same,TGI,KM12 colon,> 100 µM
same,TGI,HT29 colon,> 100 µM
same,TGI,M14 melanoma,> 100 µM
same,TGI,OVCAR-5 ovarian,> 100 µM
same,TGI,T-47D breast,> 100 µM
same,TGI,U251 CNS,> 100 µM
same,TGI,BT-549 breast,> 100 µM
same,TGI,SR leukemia,> 100 µM
same,TGI,TK-10 renal,> 100 µM
same,TGI,IGROV1 ovarian,> 100 µM
same,TGI,K-562 leukemia,> 100 µM
same,TGI,HOP-92 NSCLC,> 100 µM
same,TGI,COLO 205 colon,> 100 µM
same,TGI,NCI-H226 lung,> 100 µM
same,TGI,NCI-H460 lung,> 100 µM
same,TGI,PC-3 prostate,> 100 µM
same,TGI,786-0 renal,> 100 µM
same,TGI,A549 NSCLC,> 100 µM
same,TGI,MOLT-4 leukemia,> 100 µM
same,TGI,ACHN renal,> 100 µM
same,TGI,MALME-3M melanoma,> 100 µM
same,TGI,NCI/ADR-RES ovarian,> 100 µM
same,TGI,HCT-116 colon,> 100 µM
same,TGI,RXF 393 renal,> 100 µM
same,TGI,HOP-62 NSCLC,> 100 µM
same,TGI,SK-MEL-5 melanoma,> 100 µM
same,TGI,NCI-H23 lung,> 100 µM
same,TGI,MDA-MB-435,> 100 µM
same,TGI,CAKI-1 renal,> 100 µM
same,TGI,SNB-75 CNS,> 100 µM
same,TGI,SK-MEL-2 melanoma,> 100 µM
same,TGI,NCI-H522 lung,> 100 µM
same,TGI,MCF7 breast,> 100 µM
same,TGI,OVCAR-4 ovarian,> 100 µM
same,TGI,HS 578T breast,> 100 µM
same,TGI,SK-OV-3 ovarian,> 100 µM
CC(C)(C)[Si](C)(C)OCC1CCC(n2cnc3c(N)ncnc32)O1 (configuration not stated),TGI,HL-60(TB) leukemia,> 100 µM
same,TGI,UACC-257 melanoma,> 100 µM
same,TGI,SK-MEL-28 melanoma,> 100 µM
same,TGI,A498 renal,> 100 µM
same,TGI,MDA-MB-231 breast,> 100 µM
same,TGI,SW-620 colon,> 100 µM
same,TGI,UO-31 renal,> 100 µM
same,TGI,HCT-15 colon,> 100 µM
same,TGI,UACC-62 melanoma,> 100 µM
same,TGI,SNB-19 CNS,> 100 µM
same,TGI,DU-145 prostate,> 100 µM
same,TGI,SF-295 CNS,> 100 µM
same,TGI,LOX IMVI melanoma,> 100 µM
same,TGI,OVCAR-8 ovarian,> 100 µM
same,TGI,MDA-N,> 100 µM
same,TGI,SN12C renal,> 100 µM
same,TGI,RPMI-8226 leukemia,> 100 µM
same,TGI,OVCAR-3 ovarian,> 100 µM
same,TGI,KM12 colon,> 100 µM
same,TGI,HT29 colon,> 100 µM
same,TGI,M14 melanoma,> 100 µM
same,TGI,OVCAR-5 ovarian,> 100 µM
same,TGI,T-47D breast,> 100 µM
same,TGI,U251 CNS,> 100 µM
same,TGI,BT-549 breast,87 µM
same,TGI,TK-10 renal,> 100 µM
same,TGI,IGROV1 ovarian,> 100 µM
same,TGI,CCRF-CEM leukemia,> 100 µM
same,TGI,K-562 leukemia,> 100 µM
same,TGI,HOP-92 NSCLC,> 100 µM
same,TGI,COLO 205 colon,> 100 µM
same,TGI,NCI-H226 lung,> 100 µM
same,TGI,NCI-H460 lung,> 100 µM
same,TGI,PC-3 prostate,> 100 µM
same,TGI,MOLT-4 leukemia,> 100 µM
same,TGI,HCT-116 colon,> 100 µM
same,TGI,RXF 393 renal,> 100 µM
same,TGI,HOP-62 NSCLC,> 100 µM
same,TGI,SK-MEL-5 melanoma,34.4 µM
same,TGI,NCI-H23 lung,> 100 µM
same,TGI,MDA-MB-435,85.2 µM
same,TGI,CAKI-1 renal,> 100 µM
same,TGI,SNB-75 CNS,> 100 µM
same,TGI,SK-MEL-2 melanoma,> 100 µM
same,TGI,OVCAR-4 ovarian,> 100 µM
same,TGI,HS 578T breast,> 100 µM
same,TGI,SK-OV-3 ovarian,> 100 µM
COc1ccc(/C=C2\CCCCCC2=O)cc1,TGI,UACC-257 melanoma,> 100 µM
same,TGI,SK-MEL-28 melanoma,> 100 µM
same,TGI,A498 renal,> 100 µM
same,TGI,MDA-MB-231 breast,> 100 µM
same,TGI,SW-620 colon,> 100 µM
same,TGI,UO-31 renal,> 100 µM
same,TGI,HCT-15 colon,> 100 µM
same,TGI,UACC-62 melanoma,> 100 µM
same,TGI,SNB-19 CNS,> 100 µM
same,TGI,DU-145 prostate,> 100 µM
same,TGI,SF-295 CNS,> 100 µM
same,TGI,SF-268 CNS,> 100 µM
same,TGI,LOX IMVI melanoma,> 100 µM
same,TGI,EKVX NSCLC,> 100 µM
same,TGI,OVCAR-8 ovarian,> 100 µM
same,TGI,MDA-N,> 100 µM
same,TGI,SF-539 CNS,> 100 µM
same,TGI,HCC-2998 colon,> 100 µM
same,TGI,SN12C renal,> 100 µM
same,TGI,RPMI-8226 leukemia,> 100 µM
same,TGI,OVCAR-3 ovarian,> 100 µM
same,TGI,KM12 colon,> 100 µM
same,TGI,HT29 colon,> 100 µM
same,TGI,M14 melanoma,> 100 µM
same,TGI,OVCAR-5 ovarian,> 100 µM
same,TGI,T-47D breast,> 100 µM
same,TGI,U251 CNS,> 100 µM
same,TGI,BT-549 breast,> 100 µM
same,TGI,SR leukemia,> 100 µM
same,TGI,TK-10 renal,> 100 µM
same,TGI,IGROV1 ovarian,> 100 µM
same,TGI,CCRF-CEM leukemia,> 100 µM
same,TGI,K-562 leukemia,> 100 µM
same,TGI,HOP-92 NSCLC,> 100 µM
same,TGI,COLO 205 colon,> 100 µM
same,TGI,NCI-H226 lung,> 100 µM
same,TGI,NCI-H460 lung,> 100 µM
same,TGI,PC-3 prostate,> 100 µM
same,TGI,786-0 renal,> 100 µM
same,TGI,A549 NSCLC,> 100 µM
same,TGI,MOLT-4 leukemia,> 100 µM
same,TGI,ACHN renal,> 100 µM
same,TGI,MALME-3M melanoma,> 100 µM
same,TGI,NCI/ADR-RES ovarian,> 100 µM
same,TGI,HCT-116 colon,> 100 µM
same,TGI,RXF 393 renal,> 100 µM
same,TGI,HOP-62 NSCLC,> 100 µM
same,TGI,SK-MEL-5 melanoma,> 100 µM
same,TGI,NCI-H23 lung,> 100 µM
same,TGI,MDA-MB-435,> 100 µM
same,TGI,CAKI-1 renal,> 100 µM
same,TGI,SK-MEL-2 melanoma,> 100 µM
same,TGI,NCI-H522 lung,> 100 µM
same,TGI,MCF7 breast,> 100 µM
same,TGI,OVCAR-4 ovarian,> 100 µM
same,TGI,SK-OV-3 ovarian,> 100 µM
